This experiment has as its target hNav1.7 (Homo sapiens (Human), UniProt Q15858). Description: Tritiated aryl sulfonamide binding to membranes from cells expressing hNav1.7 and the β1 subunit (competitive binding). Conditions: membranes with hNav1.7 and β1 subunit; [3H]compound displacement, 18 h, room temperature; read-out: NaV1.7 395 Memb Binding (IC50). How it is done: Tritiated Aryl Sulfonamide Binding to Membranes Isolated from Cells that Heterologously Express hNav1.7 and the β1 Subunit
Preparation of membranes containing recombinantly expressed sodium channels: Frozen recombinant cell pellets were thawed on ice and diluted to 4 times the cell pellet weight with ice cold 50 mM Tris HCl, pH 7.4 buffer. The cell suspensions were homogenized on ice using a motorized glass dounce homogeniser. Homogenates were further diluted 8.4 times with ice cold 50 mM Tris HCl, pH 7.4 buffer and then centrifuged at 200×g at 4° C. for 15 min. The supernatants were collected and centrifuged at 10000×g at 4° C. for 50 min. The pellets were then re-suspended in 100 mM NaCl, 20 mM Tris HCl, pH 7.4 buffer containing 1% v/v protease inhibitors (Calbiochem) and re-homogenized on ice. The homogenized membranes were then processed through a syringe equipped with a 26 gauge needle. Protein concentrations were determined by Bradford Assay and the membranes were stored at −80° C.
Radioligand Binding Studies: Saturation experiments. A representative compound of formula (I) was tritiated. Three tritiums were incorporated in place of methyl hydrogens to generate [^3H]compound. Binding of this radioligand was preformed in 5 mL borosilicate glass test tubes at room temperature. Binding was initiated by adding membranes to increasing concentrations of [^3H]compound in 100 mM NaCl, 20 mM Tris HCl, pH 7.4 buffer containing 0.01% w/v bovine serum albumin (BSA) for 18 h. Non-specific binding was determined in the presence of 1 μM unlabelled compound. After 18 h, the reactants were filtered through GF/C glass fiber filters presoaked in 0.5% w/v polyethylene imine. […] [^3H]compound bound to filters was quantified by liquid scintillation counting.
Competitive binding experiments. Binding reactions were preformed in 96-well polypropylene plates at room temperature for 18 h. In 360 μL, membranes were incubated with 100 μM [^3H]compound and increasing concentrations of Test Compound. Non-specific binding was defined in the presence of 1 μM unlabelled compound. Reactions were transferred and filtered through 96-well glass fiber/C filter plates presoaked with 0.5% polyethylene imine. The filtered reactions were washed 5 times with 200 L ice cold buffer containing 0.25% BSA. Bound radioactivity was determined by liquid scintillation counting.
Data Analysis: For saturation experiments, non-specific binding was subtracted from total binding to provide specific binding and these values were recalculated in terms of pmol ligand bound per mg protein. Saturation curves were constructed and dissociation constants were calculated using the single site ligand binding model: Beq=(Bmax*X)/(X+Kd), where Beq is the amount of ligand bound at equilibrium, Bmax is the maximum receptor density, Kd is the dissociation constant for the ligand, and X is the free ligand concentration.
Chain of hNav1.7 (Q15858 whole entry, looked up): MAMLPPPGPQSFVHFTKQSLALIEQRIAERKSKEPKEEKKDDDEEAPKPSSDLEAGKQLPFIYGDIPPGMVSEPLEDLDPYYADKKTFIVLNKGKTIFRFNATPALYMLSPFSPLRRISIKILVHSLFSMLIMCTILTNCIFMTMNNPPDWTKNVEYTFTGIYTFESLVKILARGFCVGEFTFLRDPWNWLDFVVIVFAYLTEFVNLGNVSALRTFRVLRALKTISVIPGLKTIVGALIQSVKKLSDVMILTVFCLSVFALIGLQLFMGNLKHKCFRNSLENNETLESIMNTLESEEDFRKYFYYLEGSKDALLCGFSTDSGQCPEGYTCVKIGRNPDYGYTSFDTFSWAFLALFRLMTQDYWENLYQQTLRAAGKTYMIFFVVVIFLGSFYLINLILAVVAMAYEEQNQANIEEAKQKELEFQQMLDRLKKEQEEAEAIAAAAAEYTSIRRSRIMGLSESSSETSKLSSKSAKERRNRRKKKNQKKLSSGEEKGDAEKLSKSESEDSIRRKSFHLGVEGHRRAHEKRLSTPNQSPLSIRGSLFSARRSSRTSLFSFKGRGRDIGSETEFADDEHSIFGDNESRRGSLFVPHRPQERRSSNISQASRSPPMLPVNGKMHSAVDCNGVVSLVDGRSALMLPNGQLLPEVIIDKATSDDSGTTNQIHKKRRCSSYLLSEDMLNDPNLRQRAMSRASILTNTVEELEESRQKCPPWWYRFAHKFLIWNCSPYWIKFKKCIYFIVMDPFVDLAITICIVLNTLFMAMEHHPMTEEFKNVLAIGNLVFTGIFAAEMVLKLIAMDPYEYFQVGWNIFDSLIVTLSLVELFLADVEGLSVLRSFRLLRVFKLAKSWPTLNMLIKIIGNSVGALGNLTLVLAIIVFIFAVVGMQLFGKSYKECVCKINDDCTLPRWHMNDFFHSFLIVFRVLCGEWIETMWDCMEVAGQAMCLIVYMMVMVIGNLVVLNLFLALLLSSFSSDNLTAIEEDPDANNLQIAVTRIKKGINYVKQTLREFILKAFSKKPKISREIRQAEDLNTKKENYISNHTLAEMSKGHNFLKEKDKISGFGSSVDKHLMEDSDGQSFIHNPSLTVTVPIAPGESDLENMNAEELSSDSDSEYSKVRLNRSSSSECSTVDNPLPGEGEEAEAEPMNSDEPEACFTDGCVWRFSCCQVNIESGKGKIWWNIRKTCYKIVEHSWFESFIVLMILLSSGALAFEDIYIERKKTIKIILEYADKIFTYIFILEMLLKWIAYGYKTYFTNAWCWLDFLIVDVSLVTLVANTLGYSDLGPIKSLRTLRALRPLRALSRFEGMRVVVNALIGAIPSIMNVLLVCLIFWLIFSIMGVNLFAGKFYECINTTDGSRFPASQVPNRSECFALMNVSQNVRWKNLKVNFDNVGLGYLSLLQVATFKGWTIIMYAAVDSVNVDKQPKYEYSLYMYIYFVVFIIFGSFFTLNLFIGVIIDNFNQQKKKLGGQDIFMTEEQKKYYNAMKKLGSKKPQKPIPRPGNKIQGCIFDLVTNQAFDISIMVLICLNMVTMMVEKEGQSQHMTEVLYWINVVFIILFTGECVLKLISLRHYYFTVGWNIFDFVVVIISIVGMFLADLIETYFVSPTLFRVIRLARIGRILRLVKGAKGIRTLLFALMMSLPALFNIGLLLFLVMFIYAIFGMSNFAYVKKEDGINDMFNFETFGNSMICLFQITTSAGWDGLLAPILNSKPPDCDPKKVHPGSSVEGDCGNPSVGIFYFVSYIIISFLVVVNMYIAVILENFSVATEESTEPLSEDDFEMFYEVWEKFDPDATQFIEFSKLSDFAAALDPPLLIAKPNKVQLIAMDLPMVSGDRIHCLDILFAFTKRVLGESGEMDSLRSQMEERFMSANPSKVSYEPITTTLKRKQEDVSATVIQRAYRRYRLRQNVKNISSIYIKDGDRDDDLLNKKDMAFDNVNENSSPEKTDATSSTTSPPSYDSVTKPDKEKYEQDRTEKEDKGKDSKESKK
Chain of hNav1.7 (Q07699 whole entry partner, looked up): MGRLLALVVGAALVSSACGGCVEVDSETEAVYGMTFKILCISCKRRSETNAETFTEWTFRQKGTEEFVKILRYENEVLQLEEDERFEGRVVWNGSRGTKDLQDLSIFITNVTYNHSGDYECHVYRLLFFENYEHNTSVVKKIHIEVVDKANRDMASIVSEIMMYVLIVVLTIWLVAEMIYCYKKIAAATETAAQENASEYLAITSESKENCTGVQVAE
The term IC50 denotes the concentration at which inhibition is half-maximal. Consider `CS(=O)(=O)NC(=O)c1cc(Cl)c(OCC2CCC3(CCC3)CC2)cc1F`, for which the concentration for half-maximal inhibition (IC50) was 17 nM.

On to `CS(=O)(=O)NC(=O)c1cnc(OCC23CC4(F)CC(F)(CC(F)(C4)C2)C3)c(Cl)c1`, for which the concentration for half-maximal inhibition (IC50) was 21500 nM.

For `COC(=O)C12CC3CC(C1)C(Oc1cc(F)c(C(=O)NS(C)(=O)=O)cc1Cl)C(C3)C2` (single isomer, unassigned) [Example 451], the IC50 worked out at 270 nM.

For `CC(C)[C@H]1CC[C@H](Oc2cc(F)c(C(=O)NS(C)(=O)=O)cc2Cl)CC1`, the IC50 was 57 nM.

Take `CS(=O)(=O)NC(=O)c1cc(Cl)c(O[C@H]2C3CC4CC2C[C@](F)(C4)C3)cc1F`: the IC50 came out at 120 nM.

For the compound `CS(=O)(=O)NC(=O)c1cc(Cl)c(OCC2CCC3(CC2)CC3)cc1F` [Example 50], the IC50 stood at 29 nM.

As for `O=C(NS(=O)(=O)N1CC2(CCO2)C1)c1cc(C2CC2)c(OCC23CC4CC(CC(C4)C2)C3)cc1F`, the IC50 is 40 nM.

With `CS(=O)(=O)NC(=O)c1cc(C2CC2)c(OCC23CC4CC(CC(F)(C4)C2)C3)cc1F`, the half-maximal inhibitory concentration (IC50) is 3 nM.

As for `CS(=O)(=O)NC(=O)c1cc(Cl)c(OCC2(C(F)(F)F)CC2)cc1F`, the IC50 was found to be 603 nM.

Consider `CC1(COc2cc(F)c(C(=O)NS(C)(=O)=O)cc2C2CC2)CCC(F)(F)CC1`, for which the IC50 amounted to 18 nM.

Take `CS(=O)(=O)NC(=O)c1cc(Cl)c(OCC23CC4CC(CC(F)(C4)C2)C3)cc1F`: the IC50 worked out at 120 nM.

As to `CC1(C)C(COc2ccc(C(=O)NS(C)(=O)=O)cc2Cl)C1(C)C`, the 50% inhibitory concentration (IC50) was 181 nM.

Regarding `N#CC1CN(S(=O)(=O)NC(=O)c2cc(C3CC3)c(OCC34CC5CC(CC(C5)C3)C4)cc2F)C1`, the half-maximal inhibitory concentration (IC50) was found to be 12 nM.

`CS(=O)(=O)NC(=O)c1cc(Cl)c(OC[C@H]2CC[C@@H](C(F)(F)F)CC2)cc1F`: the concentration for half-maximal inhibition (IC50) was 86 nM.

Regarding `O=C(NS(=O)(=O)N1CCC1)c1cc(C2CC2)c(OC[C@H]2CC[C@H](C(F)(F)F)CC2)cc1F` [Example 436, N-(azetidin-1-ylsulfonyl)-5-cyclopropyl-2-fluoro-4-(((1r,4r)-4-(trifluoromethyl)cyclohexyl)methoxy)benzamide], the half-maximal inhibitory concentration (IC50) amounted to 9 nM.

Consider `COCCS(=O)(=O)NC(=O)c1cc(Cl)c(OCC2(C#N)C3CC4CC(C3)CC2C4)cc1F` (stereo not drawn), for which the IC50 came out at 990 nM.

Regarding `O=C(NS(=O)(=O)N1CCOCC1)c1cc(Cl)c(OCC23CC4CC(CC(C4)C2)C3)cc1F`, the concentration for half-maximal inhibition (IC50) is 55 nM.

On to `COc1cc(OCC23CC4CC(CC(C4)C2)C3)c(Cl)cc1C(=O)NS(C)(=O)=O` [Example 56], for which the concentration for half-maximal inhibition (IC50) was 480 nM.

Regarding `CC1(COc2cc(F)c(C(=O)NS(=O)(=O)N3CC(F)C3)cc2C2CC2)CCCCC1` [Example 447, 5-cyclopropyl-2-fluoro-N-((3-fluoroazetidin-1-yl)sulfonyl)-4-((1-methylcyclohexyl)methoxy)benzamide], the IC50 was 4.2 nM.

Turning to `O=C(NS(=O)(=O)N1CCC1)c1cc(Cl)c(OCC2CC3C(C2)C3(F)F)cc1F` (stereo not drawn), the 50% inhibitory concentration (IC50) is 200 nM.

As to `CC1(COc2cc(F)c(C(=O)NS(=O)(=O)N3CCC3)cc2C2CC2)CCCCC1`, the 50% inhibitory concentration (IC50) came to 3 nM.

`CCS(=O)(=O)NC(=O)c1cc(C2CC2)c(OCC2CN(C(c3ccccc3)c3ccccc3)C2)cc1F` [Example 441, 4-((1-benzhydrylazetidin-3-yl)methoxy)-5-cyclopropyl-N-(ethylsulfonyl)-2-fluorobenzamide]: the IC50 came out at 10 nM.

On to `CC1(C)[C@@H]2CC[C@@H](COc3cc(F)c(C(=O)NS(C)(=O)=O)cc3Cl)[C@H]1C2`, for which the IC50 was determined as 58 nM.

For `CC(C)[C@H]1CC[C@H](C)C[C@@H]1Oc1cc(F)c(C(=O)NS(C)(=O)=O)cc1Cl`, the IC50 is 1320 nM.

As to `CN(C)S(=O)(=O)NC(=O)c1cc(Cl)c(OCCC2CCCCCC2)cc1F`, the 50% inhibitory concentration (IC50) came out at 210 nM.

`O=C(NS(=O)(=O)C1CC1)c1cc(C2CC2)c(OCC2CC3CC3C2)cc1F` (stereo not drawn): the IC50 amounted to 11 nM.

As for `C/C=C/c1cc(C(=O)NS(=O)(=O)N2CCC2)c(F)cc1OCC12CC3CC(CC(C3)C1)C2` [Example 399], the half-maximal inhibitory concentration (IC50) was 6 nM.

As to “trans-5-cyclopropyl-N-(cyclopropylsulfonyl)-2-fluoro-4-((4-(trifluoromethyl)-cyclohexyl)methoxy)benzamide [Example 259]”, the half-inhibitory concentration (IC50) was determined as 20 nM.

In the case of `O=C(NS(=O)(=O)N1CC[C@H](O)C1)c1cc(C2CC2)c(OCC2CCCCC2)cc1F`, the IC50 stood at 160 nM.

`CS(=O)(=O)NC(=O)c1ccc(OCC23CC4CC(CC(C4)C2)C3)c(C(F)(F)F)c1` [Example 62]: the 50% inhibitory concentration (IC50) came out at 58 nM.

Take `CS(=O)(=O)NC(=O)c1cc(F)c(OCCC2CC2)cc1F`: the concentration for half-maximal inhibition (IC50) is 6860 nM.

Consider `CN(C)S(=O)(=O)NC(=O)c1cc(Cl)c(OCCC2CCC2)cc1F` [Example 140], for which the IC50 was determined as 885 nM.

Consider `O=C(NS(=O)(=O)N1CCC1)c1cc(Cl)c(OCC23CC4CC(CC(C4)C2)C3)cc1F`, for which the IC50 was found to be 21 nM.

On to `CCCCCC12CCC(COc3cc(F)c(C(=O)NS(C)(=O)=O)cc3Cl)(CC1)CC2`, for which the IC50 amounted to 9 nM.

Consider `CS(=O)(=O)NC(=O)c1cc(Cl)c(OC2CCC3(CCCCC3)CC2)cc1F`, for which the IC50 is 67 nM.

In the case of `CN(C)S(=O)(=O)NC(=O)c1ccc(OCC23CC4CC(CC(C4)C2)C3)c(C2CC2)c1`, the IC50 stood at 16.2 nM.

In the case of “5-chloro-4-((4,4-difluorocyclohexyl)methoxy)-2-fluoro-N-(methylsulfonyl)benzamide [Example 42]”, the IC50 worked out at 44 nM.

In the case of `CS(=O)(=O)NC(=O)c1cc(I)c(OCC23CC4CC(CC(C4)C2)C3)cc1F`, the IC50 came out at 8 nM.

As to `COC12CC3CC(CC(COc4cc(F)c(C(=O)NS(C)(=O)=O)cc4C4CC4)(C3)C1)C2`, the IC50 was determined as 12 nM.

As to `CN(C)S(=O)(=O)NC(=O)c1cc(Cl)c(OC2CCC(C(F)(F)F)CC2)cc1F` (stereo not drawn), the IC50 was found to be 3520 nM.

Consider `CN(C)S(=O)(=O)NC(=O)c1cc(Cl)c(OCCC2CCCC2)cc1F`, for which the IC50 was 542 nM.

For the compound `CS(=O)(=O)NC(=O)c1cc(Cl)c(OC2CC3CCC2C3)cc1F` (stereo not drawn), the concentration for half-maximal inhibition (IC50) worked out at 491 nM.

Regarding “5-cyclopropyl-4-((4,4-difluorocyclohexyl)methoxy)-2-fluoro-N-((3-fluoroazetidin-1-yl)sulfonyl)benzamide [Example 212]”, the half-maximal inhibitory concentration (IC50) came out at 2300 nM.

As for `CS(=O)(=O)NC(=O)c1cc(Cl)c(OCC2(C(F)(F)F)CCC2)cc1F`, the half-maximal inhibitory concentration (IC50) is 122 nM.

As to `CC(O)CS(=O)(=O)NC(=O)c1ccc(OCC23CC4CC(CC(C4)C2)C3)cc1F` (stereo not drawn) [Example 215], the half-maximal inhibitory concentration (IC50) was found to be 990 nM.

`O=C(NS(=O)(=O)N1CCC1)c1cc(C2CC2)c(OCC23CC4CC(CC(CO)(C4)C2)C3)cc1F`: the IC50 was determined as 80 nM.

Consider `O=C(NS(=O)(=O)N1CCC1)c1cc(C2CC2)c(OCC23CC4CC(C2)CC(OC(=O)C(F)(F)F)(C4)C3)cc1F`, for which the IC50 was determined as 35 nM.

Consider `O=C(NS(=O)(=O)C1CC1)c1cc(C2CC2)c(OCC23CCCCC2C3(F)F)cc1F` (stereo not drawn) [Example 433, 5-cyclopropyl-N-cyclopropylsulfonyl-4-[(7,7-difluoronorcaran-1-yl)methoxy]-2-fluoro-benzamide], for which the 50% inhibitory concentration (IC50) was 4 nM.

As to `CS(=O)(=O)NC(=O)c1cc(Cl)c(OC2CCC(C(F)(F)F)CC2)cc1F` (stereo not drawn) [Example 128], the IC50 was 291 nM.

Consider `CN(C)S(=O)(=O)NC(=O)c1cc(Cl)c(OC2C3CC4CC2CC(Cl)(C4)C3)cc1F` (stereo not drawn), for which the IC50 came out at 283 nM.

For the compound `CC1(C)CCCC(Oc2cc(F)c(C(=O)NS(C)(=O)=O)cc2Cl)C1` (stereo not drawn), the 50% inhibitory concentration (IC50) came to 93 nM.

`CN(C)S(=O)(=O)NC(=O)c1cc(Cl)c(OCC2CCCCC2)cc1F`: the IC50 worked out at 322 nM.

With `Cc1nnn(C23CC4CC(CC(COc5cc(F)c(C(=O)NS(C)(=O)=O)cc5Cl)(C4)C2)C3)n1`, the 50% inhibitory concentration (IC50) stood at 770 nM.

Regarding `CS(=O)(=O)NC(=O)c1ccc(CNC23CC4CC(CC(C4)C2)C3)c(Cl)c1` [Example 17], the 50% inhibitory concentration (IC50) worked out at 10000 nM.

As for `COCCS(=O)(=O)NC(=O)c1cc(C2CC2)c(OCC2C3CC4CC(C3)CC2C4)cc1F` (stereo not drawn), the half-maximal inhibitory concentration (IC50) came out at 5 nM.

In the case of `CN(C)S(=O)(=O)NC(=O)c1cc(Cl)c(COc2ccc3c(c2)CC(C)(C)CC3)cc1F`, the IC50 was 106 nM.

Consider `CS(=O)(=O)NC(=O)c1cc(Cl)c(OC2CCC3(CCCC3)CC2)cc1F` [Example 133], for which the IC50 amounted to 125 nM.

Take `CS(=O)(=O)NC(=O)c1cc(Cl)c(OCCC23CC4CC(CC(C4)C2)C3)cc1F` [Example 11]: the half-inhibitory concentration (IC50) was found to be 29 nM.

For `CS(=O)(=O)NC(=O)c1cc(Cl)c(COC23CC4CC(CC(C4)C2)C3)cc1F`, the half-maximal inhibitory concentration (IC50) stood at 16 nM.

On to `COCCS(=O)(=O)NC(=O)c1cc(C2CC2)c(OCC2(C(F)(F)F)CCCCC2)cc1F`, for which the half-maximal inhibitory concentration (IC50) came out at 30 nM.

For the origin of these results see patent publication US8952169B2 (Genentech, Inc., priority 2012, dated 2015).
